In publication PMC10974732 (2024):
In brackets after ≈: the same amount, converted by molar mass.

Tested on: 2B.N2A9 (DNA, aptamer) CATCTGCAGTGTGGCACCATGGGCATTGGGGGGCGAGGGTGGTTGGAGCGTTTGTGTGCGACGTGCTGAGCGTGAATTCGC
Test: indirect competitive ELOSA (SA-HRP/TMB)
Conditions: 37 °C, 1 h; 50 nM aptamer; competes with immobilised Neu5Gc-BSA (1 μg/mL coating)

Row | SMILES | IC50
1 | CC(=O)N[C@@H]1C(O)O[C@H](CO)[C@@H](O)[C@@H]1O (stereo partly shown) | 36,307.8 ng/mL
2 | CC(=O)N[C@H]1[C@H]([C@H](O)[C@H](O)CO)OC(O)(C(=O)O)C[C@@H]1O (stereo partly shown) | 467.74 ng/mL (≈ 1.51 µM)
3 | O=C(CO)N[C@H]1[C@H]([C@H](O)[C@H](O)CO)OC(O)(C(=O)O)C[C@@H]1O (stereo partly shown) | 9.35 ng/mL (≈ 0.0287 µM)
4 | O=C(O)C1(O)C[C@H](O)[C@@H](O)[C@H]([C@H](O)[C@H](O)CO)O1 (stereo partly shown) | 1659.58 ng/mL (≈ 6.19 µM)
5 | OC[C@H]1OC(O)[C@H](O)[C@@H](O)[C@@H]1O (stereo partly shown) | > 93,500.00 ng/mL
6 | OC[C@H]1O[C@@](CO)(O[C@H]2O[C@H](CO)[C@@H](O)[C@H](O)[C@H]2O)[C@@H](O)[C@@H]1O | > 93,500.00 ng/mL
7 | OC[C@H]1O[C@H](O[C@H]2[C@H](O)[C@@H](O)C(O)O[C@@H]2CO)[C@H](O)[C@@H](O)[C@@H]1O (stereo partly shown) | > 93,500.00 ng/mL
